Data set [1] can be described thus: Tryptophan release / dissolution in simulated gastric and intestinal fluid. The data set is classed as physicochemical. Particulars: 30 mg powder in 22 mL FaSSGF, 37° C.
Description: A sample of 200 mg of tryptophan-containing granules was suspended in 22 mL fasted-state simulated gastric fluid (FaSSGF) at 37° C. and agitated (shaker ST5 from CAT, Germany). FaSSGF was prepared by dissolving 1 g of NaCl (Sigma-Aldrich) in 450 mL of water, adding 30 mg of SIF powder (biorelvant.com), adjusting the pH to 2.0 with 0.1 N HCl (Sigma-Aldrich) and adding water to a final volume of 500 mL.
A sample of 200 mg of tryptophan-containing granules was suspended in 22 mL fasted-state simulated intestinal fluid (FaSSIF) at 37° C. and agitated (shaker ST5 from CAT, Germany).
30 mg of tryptophan powder were suspended in 22 mL FaSSGF at 37° C. and agitated (shaker ST5 from CAT, Germany). Aliquots were removed at time intervals of 5 min, and tryptophan concentration was quantified using absorption measurement at a wavelength of 280 nm in a NanoDrop® 2000 device (Thermo Scientific, USA).
The conditions of data set [2]: published rat feeding study, independent from intake; cited from earlier work.

Data on two molecules can be found in US11311570B2, “Method of inducing satiety” (PERORA GMBH, priority 2014, dated 2022).

Take `N[C@@H](Cc1c[nH]c2ccccc12)C(=O)O` [tryptophan powder, L-Tryptophan]: in data set [1], the “time after which quantitatively dissolved” value is 10 min.

As for `CCCCCCCCCCCCCCCCCC(=O)OCC(COC(=O)CCCCCCCCCCCCCCCCC)OC(=O)CCCCCCCCCCCCCCCCC` [tristearin], in data set [2], the “true digestibility of stearic acid from tristearin” value was 0.15 g/g.
